Experimental data reported in patent US20210084904A1, “SUCCINATE DEHYDROGENASE INHIBITORS AND SULFUR-CONTAINING COMPOUNDS MIXTURES AND METHODS OF USE THEREOF” (University of Georgia Research Foundation, Inc., priority 2019, published 2021).

System: Cercosporidium personatum
Experiment: Greenhouse test: efficacy on peanut late leaf spot, foliar spray
Format: in vivo
Settings: leaves sprayed, infected peanut plants
Protocol: The following greenhouse test was conducted Sep. 14, 2019. Peanut plants (Arachis hypogaea) were used in the test as the crop plant. The peanut plants were infected Cercosporidium personatum.
Leaves were sprayed with inpyfluxam, chlorothalonil, benzovindiflupyr, prothioconazole, and/or sulfur at the rates disclosed in Table 1. All data was analyzed for significance.

Question: `N#Cc1c(Cl)c(Cl)c(Cl)c(C#N)c1Cl` [Chlorothalonil, chlorothalonil] was tested. Which “% Control” value (application rate 24.0 ounces/acre) did it give?
Answer: 27.5c %

Question: With `OC(Cc1ccccc1Cl)(Cn1nc[nH]c1=S)C1(Cl)CC1` (centres unmarked) [Prothioconazole, prothioconazole] as the compound, how does the “% Control” value (application rate 7.0 ounces/acre) read?
Answer: 10.0d %

Question: Which results are given for inpyrfluxam?
Answer: % Control (application rate 2.0 ounces/acre): 32.5b %; % Control (application rate 3.0 ounces/acre): 31.3bc %; % Control (application rate 4.0 ounces/acre): 30.0bc %
